Measurements reported in US20260240913A1, “METHODS FOR PRODUCING STABLE HUMAN CHONDROCTYES AND THEIR USE FOR PROMOTING CARTILLAGE GROWTH AND REPAIR” (Cambridge Enterprise Limited, priority 2023, published 2026).

How the values were obtained:
hBMSC/SSC organoids = test: Pan-ID inhibition in hBMSC/SSC organoids during chondrogenic differentiation, qRT-PCR of chondro-osteogenic genes; type: cell-based, human
Protocol: Chondrogenic Differentiation of hBMSCs/SSC-derived Organoids: To generate control organoids, 2.5×10^5 hBMSCs/SSCs (passage 2) were suspended in 1 mL chondrogenic medium—which consisted of high glucose Dulbecco's Modified Eagle Medium (DMEM) with sodium pyruvate (ThermoFisher, Cat. No. 11995073), 1% insulin-transferrin-selenium (ThermoFisher, Cat. No. 51500056), 100 nM dexamethasone, 50 ug/mL L-ascorbic acid phosphate magnesium salt n-hydrate, 1% penicillin/streptomycin, and 10 ng/mL TGFβ1 (Peprotech, Cat. No. 100-21)—in 14 mL conical tubes. The same process was employed to generate HyA-FMB organoids, except each conical tube contained 3 mg of pre-sterilized HyA-FMBs (70% ethanol washes overnight), which were constructed according to established protocols (Kuznetsov et al., Stem Cells Translational Medicine, 26, 586-592. //doi.org/10.1016/j.joca.2018.02.293, 2019). […]
qRT-PCR. […] Lysates were processed according to Qiagen's RNeasy Mini Kit with DNAse treatment (Cat. No. 74004), and RNA quality and concentration was measured using NanoDrop. cDNA was constructed using SuperScript III First-Strand Synthesis SuperMix (ThermoFisher, Cat. No. 11752050) with no Reverse Transcriptase added to negative controls. Samples were measured in triplicate using the Quantstudio 6 Flex system (Applied Biosystems), and ΔΔCT values were calculated using GAPDH as internal controls.

sclerotome cells = test: Chondrogenic differentiation of hiPSC-derived sclerotome cells (pellet cultures, chondrospheroids), staining and Incucyte imaging; type: cell-based, human; details: pellet cultures from all sclerotome cells; 10 ng/mL each factor; across 42 days
Protocol: Staining Procedure. Paraffin-embedded tissues were used for immunofluorescence. Tissues were sectioned at 7 μm and heated for 1 hour at 60° C., then rehydrated in 2 washes of xylene (5 minutes), 100% ethanol (5 minutes), 95% ethanol (5 minutes), 70% ethanol (5 minutes), and distilled water (5 minute). Two different antigen retrieval methods were used: (1) for staining with COL1A1, COL2A1, COL10A1, PRG4, and hVIMENTIN, tissues were treated with 2 mg/mL hyaluronidase/PBS solution for 1 hour at 37° C., followed by a PBS wash and treatment with Pepsin (Millipore Sigma, Cat. No. R2283) for 5-10 minutes at 37° C.; (2) for staining with MGP, COMP, DPT, ACAN, and ALPL, tissues were incubated in citrate buffer (Millipore Sigma, Cat. No. C9999) for 1 hour at 70° C., followed by a 15-second wash with distilled water. Cytofix/Cytoperm buffer (BD, Cat. No. 554722) was used in some cases to enhance intracellular staining. Tissues were blocked in staining solution—PBS supplemented with 5% donkey serum (Sigma, Cat. No. D9663) and 0.5% IgePal (Sigma, Cat. No. I3021)—for 30 minutes, then stained with primary antibodies overnight at 4° C. […]
Confocal Imaging. […] Maximum intensity projections were merged in Fiji/Image J (National Institutes of Health) for image analysis and quantifications. […]

hBMSCs/SSCs = test: scRNA-seq of hBMSC/SSC organoids with or without HyA-FMBs during chondrogenic differentiation; type: cell-based, human; details: day 10 of chondrogenic differentiation
Protocol: Chondrogenic Differentiation of hBMSCs/SSC-derived Organoids: To generate control organoids, 2.5×10^5 hBMSCs/SSCs (passage 2) were suspended in 1 mL chondrogenic medium—which consisted of high glucose Dulbecco's Modified Eagle Medium (DMEM) with sodium pyruvate (ThermoFisher, Cat. No. 11995073), 1% insulin-transferrin-selenium (ThermoFisher, Cat. No. 51500056), 100 nM dexamethasone, 50 ug/mL L-ascorbic acid phosphate magnesium salt n-hydrate, 1% penicillin/streptomycin, and 10 ng/mL TGFβ1 (Peprotech, Cat. No. 100-21)—in 14 mL conical tubes. […]
Control and HyA-FMB organoids from days 1-10 and ectopic HyA-FMB transplant were digested in high-glucose DMEM containing 0.2% collagenase II (ThermoFisher, Cat. No. 17101015), 0.1% hyaluronidase (Merck, Cat. No. H3506), and 0.1% dispase (Sigma, Cat. No. D4693) with gentle pipetting every 20-30 minutes. […] Only samples with >95% viability were submitted for single-cell capture, as measured by Vi-CELL BLU Cell Viability Analyzer (Beckman Coulter). […] Reads were mapped using GRCh38-2020-A reference transcriptome, and libraries were processed using Cell Ranger version 7.0. […] Differentially expressed genes, which represented at least 25% of each cluster (p<0.05), were analyzed using gProfiler (biit.cs.ut.ee/gprofiler/gost) for functional enrichment analysis and cell cluster annotation.

Hedgehog = details: according to Wu et al. 2021; cited from earlier work
hBMSC/SSC = details: chronic BMP blockade; Franco et al. 2022; cited from earlier work

Q: With `CCC(=O)N(CCC(c1ccc2c(c1)OCO2)c1ccccc1OC)Cc1ccccc1` (stereo not drawn) [AGX51] as the compound, how does the “RUNX2, IBSP and COL1A1 (osteogenic) gene expression” value (hBMSC/SSC organoids; 30 μM AGX51 every 2-3 days for 28 days, qRT-PCR at days 3, 7, 14, 21, 28, versus vehicle) read?
A: Its value is “initial decrease in RUNX2 and IBSP expression at days 3 and 7, followed by an increase in RUNX2, IBSP, and COL1A1 expression from days 21-28”.

Q: And the “chondrogenic gene expression (SOX9, ACAN, and COL2A1)” value (hBMSC/SSC organoids; 30 μM AGX51 for 28 days, qRT-PCR)?
A: The value was “initially decreased, but stabilized”.

Q: Which results are given for “TGFβ1: transforming growth factor β1, recombinant growth factor in chondrogenic medium”?
A: matrix protein expression in sclerotome-derived pellet cultures (sclerotome cells): stable COL1A1 and COL2A1 expression across 42 days, with sporadic ACAN and minimal PRG4 expression; IBSP+ cell populations (hBMSCs/SSCs): About 90%

Q: Which “suitability as Hedgehog agonist for sclerotome induction” value (Hedgehog) does the source give for `c1ccc2c(Oc3nc(Nc4ccc(N5CCOCC5)cc4)c4ncn(C5CCCCC5)c4n3)cccc2c1` [purmorphamine] here?
A: The value was “effective substitute for the commercially-synthesized Hedgehog agonist 21K”.

Q: Which hypertrophic expression (hBMSC/SSC) does the source give for `Cl.c1ccc2c(-c3cnn4cc(-c5ccc(N6CCNCC6)cc5)cnc34)ccnc2c1` [LDN 193189, 4-(6-(4-(piperazin-1-yl)phenyl)pyrazolo[1,5-a]pyrimidin-3-yl)quinoline hydrochloride] here?
A: The hypertrophic expression was “does not prevent hypertrophic expression”.
